Experimental data taken from US20260274892A1, “MACROCYCLIC BROAD SPECTRUM ANTIBIOTICS” (RQx Pharmaceuticals, Inc., priority 2017, published 2026).
Like-named read-outs stand apart in the source and are kept apart here.

Details: cc_pd bond, Pd(dppf)Cl2·CH2Cl2, acetonitrile

Row | Compound | ring closure, yield of all isomers (from COC(=O)[C@H](Cc1cc(F)c(OCc2ccccc2)c(B2OC(C)(C)C(C)(C)O2)c1)NC(=O)[C@H](C)NC(=O)[C@H](c1ccc(OCCNC(=O)OC(C)(C)C)c(I)c1)N(C)C(=O)OCc1ccccc1, 20.06 mM, 70.0 °C, 1.5 h) [%] | ring closure, yield of all isomers (from COC(=O)[C@H](Cc1cc(O)c(OC)c(B2OC(C)(C)C(C)(C)O2)c1)NC(=O)[C@H](C)NC(=O)[C@H](c1ccc(OC)c(I)c1)N(C)C(=O)OC(C)(C)C, 65.0 °C, 2.0 h) [%]
1 | COC(=O)[C@@H]1Cc2cc(F)c(OCc3ccccc3)c(c2)-c2cc(ccc2OCCNC(=O)OC(C)(C)C)[C@H](N(C)C(=O)OCc2ccccc2)C(=O)N[C@@H](C)C(=O)N1 | 31 | –
2 | COC(=O)[C@@H]1Cc2cc(O)c(OC)c(c2)-c2cc(ccc2OC)[C@H](N(C)C(=O)OC(C)(C)C)C(=O)N[C@@H](C)C(=O)N1 | – | 17.1
